Values quoted from earlier work, collected in US9399044B2, “Antimicrobial cationic polyamines” (International Business Machines Corporation, priority 2014, dated 2016).

Test system: mouse
Details: commercially available compounds, source NIH

Structure (SMILES)	Mouse Intravenous LD50
CN(Cc1cnc2nc(N)nc(N)c2n1)c1ccc(C(=O)N[C@@H](CCC(=O)O)C(=O)O)cc1 [Methotrexate]	65 mg/kg
CN1CCCC1c1cccnc1 (centres unmarked) [Nicotine]	0.3 mg/kg
NNC(=O)c1ccncc1 [Isoniazid]	149 mg/kg
CC[C@@H](CO)NCCN[C@@H](CC)CO [Ethambutol]	240 mg/kg
CO[C@H]1/C=C/O[C@@]2(C)Oc3c(C)c(O)c4c(O)c(c(/C=N/N5CCN(C)CC5)c(O)c4c3C2=O)NC(=O)/C(C)=C\C=C\[C@H](C)[C@H](O)[C@@H](C)[C@@H](O)[C@@H](C)[C@H](OC(C)=O)[C@@H]1C [Rifampin]	260 mg/kg
